From patent US11672800B2, “Combination therapies with EHMT2 inhibitors” (Epizyme, Inc., priority 2017, dated 2023) come the findings set out here.

In general, IC50 refers to the concentration that gives 50% inhibition.

Molecules are shown by their SMILES.

What all share (type): cell-based
The test system of one experiment is MeWo. The experiment can be described thus: In vitro combination study of Compound 205 with a second agent, melanoma cell proliferation (CellTiter Glo, Loewe synergy). The conditions noted are these: combination with Compound 205; for Combinatorial effect (Loewe method) of second agent with Compound 205, MeWo: 7 days pre-treatment with Compound 205, then 7 days co-treatment, ATP content, Loewe volume >1 synergy, -1 to 1 additivity. Here is the method:
(§1) On day 14 plates were developed for endpoint analysis using CellTiter Glo to measure ATP content, which was used as an indicator of cell viability. DMSO concentration was kept constant throughout the assay at 0.2% v/v.
(§2) All cells were maintained and cultured at 37° C., in a humidified atmosphere and 5% CO2.
(§3) Loewe volumes greater than 1 denoted synergy and volumes below −1 denoted antagonism. A value between −1 and 1 denoted additivity.

For a further experiment, the system named is WM-266-4. The description is as above. To be noted: combination with Compound 205; for Combinatorial effect (Loewe method) of second agent with Compound 205, WM-266-4: 7 days pre-treatment with Compound 205, then 7 days co-treatment, ATP content, Loewe volume >1 synergy, -1 to 1 additivity. Here is the method:
as §1, §2, §3

In the next experiment the test system is TALL-1. Briefly: In vitro long term proliferation (LTP), T-ALL cell line. To be noted: Homo sapiens, 336 h, 14 day LTP, absolute IC50, seeding density 150000, read-out: Compound A75 IC50. Here is the method: (§4) Exponentially growing T-cell lymphocytic leukemia (T-ALL) cells were plated, in triplicate, in 96-well plates at the appropriate cell density in a final volume of 150 μl. Cells were incubated in the presence of increasing concentrations of Compound A75. Viable cell number was determined at day 0, 4, 7, 11 and 14 days using Calcein staining and using an Accumen instrument to enumerate the number of cells. On days of cell counts, growth media and Compound A75 were replaced and cells split back to initial density. Total cell number is expressed as split-adjusted viable cells per well. For each cell line, absolute IC50 values (concentration of compound at which 50% inhibition occurs) were determined from concentration-dependence curves at 14 days using Graphpad Prism software.

The subject of the next experiment is PEER. Described as above. The conditions noted are these: Homo sapiens, 336 h, 14 day LTP, absolute IC50, seeding density 250000, read-out: Compound A75 IC50. Here is the method: as §4
The subject of the next experiment is SUP-T1. The experiment is described as above. The conditions noted are these: Homo sapiens, 336 h, 14 day LTP, absolute IC50, seeding density 200000, read-out: Compound A75 IC50. Here is the method: as §4
A further experiment has as its system CCRF-CEM. The description is as above. The conditions noted are these: Homo sapiens, 336 h, 14 day LTP, absolute IC50, seeding density 100000, read-out: Compound A75 IC50. Here is the method:
as §4

A further experiment has as its system MOLT-16. The description is as above. To be noted: Homo sapiens, 336 h, 14 day LTP, absolute IC50, seeding density 100000, read-out: Compound A75 IC50. Here is the method:
as §4

The subject of another experiment is MOLT-4. The experiment is described as above. To be noted: Homo sapiens, 336 h, 14 day LTP, absolute IC50, seeding density 100000, read-out: Compound A75 IC50. Here is the method: as §4
The subject of the next experiment is Jurkat. Described as above. To be noted: Homo sapiens, 336 h, 14 day LTP, absolute IC50, seeding density 100000, read-out: Compound A75 IC50. Here is the method: as §4
Throughout, for Combinatorial effect (Loewe method) of second agent with Compound 205, MeWo: key: SYN Synergy; ADD Additivity.
Throughout, for Combinatorial effect (Loewe method) of second agent with Compound 205, WM-266-4: key: SYN Synergy; ADD Additivity.

Regarding `CNC(=O)c1cc(Oc2ccc(NC(=O)Nc3ccc(Cl)c(C(F)(F)F)c3)cc2)ccn1` [Sorafenib], the “Combinatorial effect (Loewe method) of second agent with Compound 205, MeWo” value (“Combinatorial effect (Loewe method) … MeWo” for short) in the experiment with MeWo is given as “ADD”. In addition, in the experiment with WM-266-4, the “Combinatorial effect (Loewe method) of second agent with Compound 205, WM-266-4” value (shortened to “Combinatorial effect (Loewe method) … WM-266-4”) was “SYN”.

Consider `CO[C@H]1C[C@@H]2CC[C@@H](C)[C@@](O)(O2)C(=O)C(=O)N2CCCC[C@H]2C(=O)O[C@H]([C@H](C)C[C@@H]2CC[C@@H](OCCO)[C@H](OC)C2)CC(=O)[C@H](C)/C=C(\C)[C@@H](O)[C@@H](OC)C(=O)[C@H](C)C[C@H](C)/C=C/C=C/C=C/1C` [Everolimus, everolimus], for which the “Combination effect of Compound 205 and Everolimus (figure legend)” value with MeWo (MeWo melanoma cell line, FIG. 6) is listed as “synergy”; in the experiment with WM-266-4 (WM-266-4 melanoma cell line, FIG. 6), “synergy”. Moreover, in the experiment on MeWo, the “Combinatorial effect (Loewe method) … MeWo” value is reported as “SYN”. For the same compound, in the experiment with WM-266-4, the “Combinatorial effect (Loewe method) … WM-266-4” value was “SYN”.

Take `NC1(c2ccc(-c3nc4ccn5c(=O)[nH]nc5c4cc3-c3ccccc3)cc2)CCC1` [MK-2206]: the “Combinatorial effect (Loewe method) … MeWo” value in the experiment on MeWo is on record as “SYN”. In addition, the “Combinatorial effect (Loewe method) … WM-266-4” value in the experiment with WM-266-4 is “SYN”.

Consider `CNC1=Nc2cc(C#CCN3CCCCC3)c(OC)cc2C12CCC2` [Compound A75], for which the IC50 is 5 to 15 µM in the experiment on TALL-1; < 100 nM in the experiment with PEER; 5 to 15 µM in the experiment with SUP-T1; 1000 to 5000 nM in the experiment on CCRF-CEM; 100 to 1000 nM with MOLT-16; 100 to 1000 nM with MOLT-4. Also, in the experiment with Jurkat, the IC50 fell in the range of 1000 to 5000 nM.

Consider `Cn1cnc2c(F)c(Nc3ccc(Br)cc3Cl)c(C(=O)NOCCO)cc21` [Selumetinib, selumetinib], for which the “Combinatorial effect (Loewe method) … MeWo” value in the experiment with MeWo was “ADD”. For the same compound, in the experiment with WM-266-4, the “Combinatorial effect (Loewe method) … WM-266-4” value is “ADD”.

`CC(=O)Nc1cccc(-n2c(=O)n(C3CC3)c(=O)c3c(Nc4ccc(I)cc4F)n(C)c(=O)c(C)c32)c1` [Trametinib]: the “Combinatorial effect (Loewe method) … MeWo” value in the experiment on MeWo is “ADD”. Moreover, the “Combinatorial effect (Loewe method) … WM-266-4” value with WM-266-4 is on record as “ADD”.

For the compound `CC(C)NC[C@@H](C(=O)N1CCN(c2ncnc3c2[C@H](C)C[C@H]3O)CC1)c1ccc(Cl)cc1` [GDC-0068, (2S)-2-(4-chlorophenyl)-1-[4-[(5R,7R)-7-hydroxy-5-methyl-6,7-dihydro-5H-cyclopenta[d]pyrimidin-4-yl]piperazin-1-yl]-3-(propan-2-ylamino)propan-1-one], the “Combinatorial effect (Loewe method) … MeWo” value in the experiment on MeWo is “ADD”. The “Combinatorial effect (Loewe method) … WM-266-4” value in the experiment with WM-266-4 was “SYN”.

For the compound `CC(=O)c1c(C)c2cnc(Nc3ccc(N4CCNCC4)cn3)nc2n(C2CCCC2)c1=O` [Palbociclib, palbociclib], the “Combinatorial effect (Loewe method) … MeWo” value in the experiment on MeWo was “SYN”. For the same compound, the “Combinatorial effect (Loewe method) … WM-266-4” value in the experiment with WM-266-4 was “SYN”.

In the case of `CC(C)Nc1cc(-c2c[nH]c(C(=O)N[C@H](CO)c3cccc(Cl)c3)c2)c(Cl)cn1` [BVD-523, N-[(1S)-1-(3-chlorophenyl)-2-hydroxyethyl]-4-[5-chloro-2-(propan-2-ylamino)-pyridin-4-yl]-1H-pyrrole-2-carboxamide], in the experiment with MeWo, the “Combinatorial effect (Loewe method) … MeWo” value is on record as “ADD”. Also, the “Combinatorial effect (Loewe method) … WM-266-4” value with WM-266-4 is “ADD”.

As for `CS(=O)(=O)N1CCN(Cc2cc3nc(-c4cccc5[nH]ncc45)nc(N4CCOCC4)c3s2)CC1` [Pictilisib, 4-[2-(1H-indazol-4-yl)-6-[(4-methylsulfonylpiperazin-1-yl)methyl]thieno[3,2-d]pyrimidin-4-yl]morpholine], the “Combinatorial effect (Loewe method) … MeWo” value with MeWo is recorded as “SYN”. In the experiment with WM-266-4, the “Combinatorial effect (Loewe method) … WM-266-4” value is given as “SYN”.

As for `Nc1cc(C(F)(F)F)c(-c2cc(N3CCOCC3)nc(N3CCOCC3)n2)cn1` [BKM120, 5-(2,6-dimorpholin-4-ylpyrimidin-4-yl)-4-(trifluoromethyl)pyridin-2-amine], the “Combinatorial effect (Loewe method) … MeWo” value with MeWo is “SYN”. The “Combinatorial effect (Loewe method) … WM-266-4” value with WM-266-4 is on record as “SYN”.
